Data on 4 compounds can be found in patent publication US9676715B2, “Bis-indolic derivatives, a process for preparing the same and their uses as a drug” (UNIVERSITE JOSEPH FOURIER, priority 2011, dated 2017).

Values after ≈ are worked out from the molar mass of the structure shown.

One assay deals with E. faecium CIP 54.32. Put plainly: MIC, microdilution method (9.1). Format: cell-based, Enterococcus faecium. To be noted: Enterococcus faecium, CIP54, 18 h, read-out: MIC. The essentials: (§1)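 Each strain is grown in Mueller Hinton broth with indolic compounds at twofold increments (final 0.50-128 mg/L), starting from 5×10^5 CFU/ml. Plates incubate at 37° C. in ambient air, as set out by CLSI M07-A8.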

Assay [1] concerns KB (human mouth carcinoma). The assay is described as follows: In vitro cytotoxicity. It is filed as cell-based. To be noted: read-out: % of cellular growth inhibition; for inhibition at 10 µM: 10^−5 M; for inhibition at 1 µM: 10^−6 M. The method, then: (§2) In vitro cytotoxicity was assayed on three cell lines—KB (human mouth carcinoma), MCR5 (human lung fibroblast) and HCT116 (human colon tumor). Results are presented in table IV as % of cellular growth inhibition in presence of 10^−5 M and 10^−6 M of the tested bis-indolic derivatives.

The test system of assay [2] is HCT116 (human colon tumor). Put plainly: In vitro cytotoxicity. Format: cell-based. To be noted: read-out: % of cellular growth inhibition; for inhibition at 10 µM: HCT-116, 10^−5 M; for inhibition at 1 µM: HCT-116, 10^−6 M. The method, then: as §2
Assay [3] concerns MRC5 (human lung fibroblast). The assay is described as follows: In vitro cytotoxicity. To be noted: read-out: % of cellular growth inhibition; for inhibition at 10 µM: 10^−5 M; for inhibition at 1 µM: 10^−6 M. It is filed as cell-based. The method, then: as §2
The subject of assay [4] is Staphylococcus aureus 1199B (overexpression of the NorA efflux pump). Put plainly: Efflux pump inhibition assay with sub-inhibitory ciprofloxacin. Format: cell-based. To be noted: S. aureus 1199B. How it is done: The efflux pump inhibition potential of the bis-indolic derivatives was tested using two steps.
The following experimental protocol was used: indolic derivatives (initially solubilised in DMSO at 10 mg/mL) were dispensed in a 96-wells microplate by two fold serial dilutions in Muller-Hinton medium (MH, Bio Rad) using a Biomek 2000 (Beckman) handling robot. 100 μL of the bacterial inoculum (an overnight culture at 37° C. in 5 mL MH diluted 100-fold) was then added in each well. The total volume was 200 μL in each well and the final bacteria concentration 10^6 CFU/mL (CFU: colony forming unit). The highest final indolic derivative concentration was 128 mg/L. Growth was assayed with a microplate reader by monitoring absorption at 620 nm after 1, 2, 5, 7 and 24 h incubation at 37° C. In addition, the plates were read visually after 24 hours incubation. Cultures containing 5 μL DMSO were used as growth controls. In addition, two controls containing a sub-inhibitory or a inhibitory antibiotic concentration for the tested strain were performed. The antibiotics used were ampicillin (0.5 and 32 μg/mL) for E. coli, kanamycin (0.5 and 16 μg/mL) for S. aureus ATCC 25923, ciprofloxacin (4 and 64 mg/L) for S. aureus 1199B, ciprofloxacin (0.5 and 2 mg/L) for S. aureus K2378. All experiments were performed in duplicate.
Efflux pump inhibition assays were then performed against resistant Staphylococcus aureus strains SA 1199B and SA K2378 for bis-indolic derivatives. […] The minimal inhibitory concentration (MIC) of the bis-indolic compound allowing a complete inhibition of the bacterial growth in the presence of ciprofloxacin was determined.

The test system of another assay is E. faecalis ATCC 29212. The assay is described as follows: MIC, microdilution method (9.1). Format: cell-based, Enterococcus faecalis. To be noted: Enterococcus faecalis, ATCC29212, 18 h, read-out: MIC. Put shortly:
as §1
On the technique in general: In broth dilution the organism is exposed to a series of concentrations in liquid medium.

The subject of assay [5] is Staphylococcus aureus MRSA 252. Put plainly: MIC, Staphylococcus panel (9.2). It is filed as cell-based. To be noted: 18 h. The method, then: (§3) The microdilution method recommended by the Clinical and Laboratory Standard Institute [M07-A9, Vol. 32, N° 2] was used. The activity of bis-indolic compounds 3f and 4 was tested against 35 Staphylococcus bacterial strains corresponding to 12 different species,
(§4) Bacterial inocula were prepared in Mueller Hinton broth (MH2, BioMérieux, Marcy L'Etoile, France). They were dispensed in 96 well microtiter plates (5×10^5 CFU/ml of final inoculum, 192 μL per well). Indolic compounds diluted in pure DMSO (8 μL per well, concentrated 25 times) were added to the wells as to obtain two-fold serial concentrations (0.5-32 mg/L of final concentrations). The final concentration of DMSO was 4% in each well.
(§5) To avoid cross-contaminations in microtiter plates, one row was left blank between each strain tested. Microplates were incubated for 18 h at 37° C. in ambient air. Then MICs were read visually and, in case of visual reading difficulties, confirmed using a spectrophotometer at a wavelength of 630 nm (BioTek® EL808 Absorbance Microplate Reader). MICs corresponded to the minimum bis-indolic compound concentration that allowed complete visual growth inhibition of bacteria. Drug-free cultures served as growth controls.
(§6) Four Staphylococcus aureus strains were used. Two reference strains were provided by the French reference center for Staphylococcus spp. (Lyon, France), including one methicillin-susceptible (MSSA 476) and one methicillin-resistant (MRSA 252) S. aureus strains. The two remaining S. aureus strains were purchased from the CRBIP (Centre de Ressources Biologiques de l'Institut Pasteur): a vancomycin-intermediate strain (ATCC 106414) and a S. aureus strain (SA-1199B) resistant to fluoroquinolones due to overexpression of the NorA multidrug efflux pump.

Assay [6] has as its system Staphylococcus aureus SA-1199B (NorA). The assay is described as follows: MIC, Staphylococcus panel (9.2). To be noted: 18 h. Format: cell-based. The method, then: as §3, §4, §5, §6
Assay [7] concerns Staphylococcus aureus MSSA 476. Put plainly: MIC, Staphylococcus panel (9.2). To be noted: S. aureus MSSA 476, 4% DMSO, 18 h. Format: cell-based. The method, then:
as §3, §4, §5, §6

In another assay the test system is S. aureus ATCC 25923. Put plainly: Mutation frequency. It is filed as cell-based, Staphylococcus aureus. The method, then:
The mutation frequency is the number of individuals in a population with a particular mutation. In the present case, the mutation frequency was determined for a specific bacterial species and a specific indolic compound. Mueller Hinton agar plates containing various indolic compound concentrations, i.e., MIC×2, MIC×4, MIC×8, and MIC×16 were prepared. These plates were inoculated with various bacterial suspensions: 10^7, 10^8 or 10^9 UFC/mL. After 24 hours incubation of media at 37° C., CFU were numerated. The mutation frequency corresponded to the ratio of resistant mutants counted on a specific plate to the CFU count of the primary inoculum, expressed as a percentage.

Setting [8] is: in the presence of ciprofloxacin 4 mg/L.

In general, MIC refers to the smallest concentration in the dilution series that meets the test's criterion for growth inhibition. In general, inhibition refers to the relative decrease from the control value, in per cent. Consider `Cn1cc(C(=O)NC(CNC(=O)OC(C)(C)C)c2c[nH]c3ccc(Br)cc23)c2cc(Br)ccc21` (stereo not drawn) [Compound 7, tert-Butyl (2-(5-bromo-1-methyl-1H-indole-3-carboxamido)-2-(5-bromo-1H-indol-3-yl)ethyl) carbamate], for which the MIC in the assay on E. faecium CIP 54.32 and with E. faecalis ATCC 29212 was greater than 128 µg/mL in each case. For the same compound, the inhibition at 10 µM worked out at 52 ± 2% in assay [1], 35 ± 3% in [2] and 23 ± 6% in assay [3]. The inhibition at 1 µM in assay [1] amounted to 2%; in assay [2] it was 8%; in [3], 12%. Also, the “MIC, mg/L (Ciprofloxacin concentration, mg/L)” value in assay [4] (in the presence of ciprofloxacin 1 mg/L) is 4 (1) mg/L; in [4] (in the presence of ciprofloxacin 2 mg/L), 1 (2) mg/L; in assay [4] (setting [8]), 0.25 (4) mg/L.
Take `NCCCCNC(=O)C(NC(=O)c1c[nH]c2ccc(Br)cc12)c1c[nH]c2ccc(Br)cc12` (stereo not drawn) [Compound 16, N-(2-((4-Aminobutyl)amino)-1-(5-bromo-1H-indol-3-yl)-2-oxoethyl)-5-bromo-1H-indole-3-carboxamide]: the MIC in the assay on E. faecium CIP 54.32 and in the assay on E. faecalis ATCC 29212 was greater than 128 µg/mL in each case. For the same compound, the “MIC, mg/L (Ciprofloxacin concentration, mg/L)” value in [4] (setting [8]) is 1 (4) mg/L.
With `CC(NC(=O)c1c[nH]c2ccc(Br)cc12)c1c[nH]c2ccc(Br)cc12` (stereo not drawn) [Compound 4, 5-Bromo-N-(1-(5-bromo-1H-indol-3-yl)ethyl)-1H-indole-3-carboxamide], the minimum inhibitory concentration (MIC) came to 2 µg/mL (≈ 4.34 µM) in assay [5], 2 µg/mL (≈ 4.34 µM) in assay [6] and 1 µg/mL (≈ 2.17 µM) in [7]. Further, the inhibition at 10 µM in assay [1] came out at 13 ± 3%; in assay [2], 12 ± 1%; in [3], 36 ± 4%. The inhibition at 1 µM was found to be 0% in assay [1], 0% in [2] and 7% in [3]. Further, the mutation frequency in the assay with S. aureus ATCC 25923 is recorded as < 1.5×10^−10.
Regarding `CC(C)(C)OC(=O)NCC(NC(=O)c1c[nH]c2ccc(Br)cc12)c1c[nH]c2ccc(Br)cc12` (stereo not drawn) [Compound 3f, tert-Butyl(2-(5-bromo-1H-indol-3-yl)-2-(5-bromo-1H-indolyl-3-carboxamido)ethyl)carbamate], the MIC in the assay on E. faecium CIP 54.32 was greater than 128 µg/mL; in [5], 2 µg/mL (≈ 3.47 µM); in [6] it was 2 µg/mL (≈ 3.47 µM); in assay [7] it was 2 µg/mL (≈ 3.47 µM); in the assay on E. faecalis ATCC 29212, greater than 128 µg/mL. The inhibition at 10 µM in [1] is 97 ± 1%; in assay [2], 89 ± 9%; in [3], 91 ± 10%. The inhibition at 1 µM in assay [1], in assay [2] and in assay [3] was 0% throughout. Moreover, the mutation frequency in the assay on S. aureus ATCC 25923 was 2×10^−9.
